The results in this text go back to patent US20250313546A1, “NUCLEIC ACID BINDERS” (UNIVERSITY OF STRATHCLYDE, priority 2022, published 2025).

Common to all, as to test: Antibacterial MIC, broth microdilution (CLSI)
Common to all, as to type: cell-based
(In broth dilution the organism is exposed to a series of concentrations in liquid medium.)

In assay [1] the test system is Enterococcus faecalis (ATCC 51299). As to conditions: Enterococcus faecalis, ATCC51299; read-out: MIC80 E. faecalis.
Assay [2] relates to Staphylococcus aureus (ATCC 43300). As to conditions: Staphylococcus aureus, ATCC43300; read-out: MIC80 S. aureus.
The test system of assay [3] is Escherichia coli (ATCC 25922). Particulars: Escherichia coli, ATCC25922; read-out: MIC80 E. coli.

Values after ≈ are worked out from the molar mass of the structure shown.

Take `Cn1cc(NC(=O)c2cc(NC(=O)c3ccc(/C=C/c4cnc5ccccc5c4)cc3)cn2C)cc1C(=O)NCCCCC(=N)N` [II1, (E)-N-(5-amino-5-iminopentyl)-1-methyl-4-(1-methyl-4-(4-(2-(quinolin-3-yl)vinyl)benzamido)-1H-pyrrole-2-carboxamido)-1H-pyrrole-2-carboxamide]: the MIC80 in assay [1] was over 100 µM; in assay [2], 25 to 100 µM (≈ 15.4 to 61.7 µg/mL); in assay [3] it was over 100 µM.

Take `CN(C)c1ccc(/C=C/c2ccc(C(=O)Nc3cc(C(=O)Nc4cc(C(=O)NCCCCC(=N)N)n(C)c4)n(C)c3)cn2)cc1` [II2, (E)-N-(5-((5-((5-amino-5-iminopentyl)carbamoyl)-1-methyl-1H-pyrrol-3-yl)carbamoyl)-1-methyl-1H-pyrrol-3-yl)-6-(4-(dimethylamino)styryl)nicotinamide]: the MIC80 in assay [1] was 5 to 25 µM (≈ 3.05 to 15.2 µg/mL); in assay [2], 5 to 25 µM (≈ 3.05 to 15.2 µg/mL); in assay [3] it was over 100 µM.

On to `Cn1cc(NC(=O)c2cc(NC(=O)c3ccc(/C=C/c4cnc5ccccc5c4)cc3)cn2C)cc1C(=O)NCCCCCC(=N)N` [II3, (E)-N-(6-amino-6-iminohexyl)-1-methyl-4-(1-methyl-4-(4-(2-(quinolin-3-yl)vinyl)benzamido)-1H-pyrrole-2-carboxamido)-1H-pyrrole-2-carboxamide], for which the MIC80 in assay [1] is over 100 µM; in assay [2] it was 5 to 25 µM (≈ 3.15 to 15.8 µg/mL); in assay [3] it was over 100 µM.

In the case of `CN(C)c1ccc(/C=C/c2ccc(C(=O)Nc3cc(C(=O)Nc4cc(C(=O)NCCCCCC(=N)N)n(C)c4)n(C)c3)cn2)cc1` [II4, (E)-N-(5-((5-((6-amino-6-iminohexyl)carbamoyl)-1-methyl-1H-pyrrol-3-yl)carbamoyl)-1-methyl-1H-pyrrol-3-yl)-6-(4-(dimethylamino)styryl)nicotinamide], the MIC80 is over 100 µM in assay [1], 5 to 25 µM (≈ 3.12 to 15.6 µg/mL) in assay [2] and over 100 µM in assay [3].

In the case of `CN(C)C(=O)c1cc(NC(=O)c2cc(NC(=O)c3ccc(/C=C/c4cnc5ccccc5c4)cc3)cn2C)cn1C` [IVa16, (E)-N,N,1-trimethyl-4-(1-methyl-4-(4-(2-(quinolin-3-yl)vinyl)benzamido)-1H-pyrrole-2-carboxamido)-1H-pyrrole-2-carboxamide], the MIC80 was under 5 µM in assay [1], under 5 µM in assay [2] and over 100 µM in assay [3].

As to `CCCNC(=O)c1cc(NC(=O)c2cc(NC(=O)c3ccc(/C=C/c4cnc5ccccc5c4)cc3)cn2C)cn1C` [IVa17, (E)-1-methyl-4-(1-methyl-4-(4-(2-(quinolin-3-yl)vinyl)benzamido)-1H-pyrrole-2-carboxamido)-N-propyl-1H-pyrrole-2-carboxamide], the MIC80 in assay [1] was under 5 µM; in assay [2] it was under 5 µM; in assay [3], over 100 µM.

Take `COCCNC(=O)c1cc(NC(=O)c2cc(NC(=O)c3ccc(/C=C/c4cnc5ccccc5c4)cc3)cn2C)cn1C` [IVa18, (E)-N-(2-methoxyethyl)-1-methyl-4-(1-methyl-4-(4-(2-(quinolin-3-yl)vinyl)benzamido)-1H-pyrrole-2-carboxamido)-1H-pyrrole-2-carboxamide]: the MIC80 in assay [1] was under 5 µM; in assay [2], under 5 µM; in assay [3], over 100 µM.

Turning to `CNC(=N)CCNC(=O)c1cc(NC(=O)c2cc(NC(=O)c3ccc(/C=C/c4ccc(C(F)(F)F)cc4)cc3)cn2C)cn1C` [Ia2, (E)-N-(3-imino-3-(methylamino)propyl)-1-methyl-4-(1-methyl-4-(4-(4-(trifluoromethyl)styryl)benzamido)-1H-pyrrole-2-carboxamido)-1H-pyrrole-2-carboxamide], the MIC80 was under 5 µM in assay [2] and over 100 µM in assay [3].

Turning to `CNC(=N)CCNC(=O)c1cc(NC(=O)c2cc(NC(=O)c3ccc(/C=C/c4ccc5ccccc5c4)cc3)cn2C)cn1C` [Ia4, (E)-N-(3-imino-3-(methylamino)propyl)-1-methyl-4-(1-methyl-4-(4-(2-(naphthalen-2-yl)vinyl)benzamido)-1H-pyrrole-2-carboxamido)-1H-pyrrole-2-carboxamide], the MIC80 was 5 to 25 µM (≈ 3.01 to 15 µg/mL) in assay [2] and over 100 µM in assay [3].

For `CONC(=N)CCNC(=O)c1cc(NC(=O)c2cc(NC(=O)c3ccc(/C=C/c4cccc(OC)c4)cc3)cn2C)cn1C` [Ia29, (E)-N-(3-imino-3-(methoxyamino)propyl)-4-(4-(4-(3-methoxystyryl)benzamido)-1-methyl-1H-pyrrole-2-carboxamido)-1-methyl-1H-pyrrole-2-carboxamide], the MIC80 in assay [1] is 5 to 25 µM (≈ 2.99 to 14.9 µg/mL); in assay [2] it was under 5 µM; in assay [3] it was over 100 µM.

In the case of `[H]/N=C(\CCNC(=O)c1cc(NC(=O)c2cc(NC(=O)c3ccc(C=Cc4ccc5nonc5c4)cc3)cn2C)cn1C)NOC` [Ia30, (E)-4-(4-(2-(benzo[c][1,2,5]oxadiazol-5-yl)vinyl)benzamido)-N-(5-((3-imino-3-(methoxyamino)propyl)carbamoyl)-1-methyl-1H-pyrrol-3-yl)-1-methyl-1H-pyrrole-2-carboxamide], the MIC80 is 5 to 25 µM (≈ 3.05 to 15.2 µg/mL) in assay [1], 5 to 25 µM (≈ 3.05 to 15.2 µg/mL) in assay [2] and over 100 µM in assay [3].

In the case of `[H]/N=C(\CCNC(=O)c1cc(NC(=O)c2cc(NC(=O)c3ccc(C=Cc4ccc(N(C)C)cc4)nc3)cn2C)cn1C)NOC` [Ia31, (E)-6-(4-(dimethylamino)styryl)-N-(5-((5-((3-imino-3-(methoxyamino)propyl)carbamoyl)-1-methyl-1H-pyrrol-3-yl)carbamoyl)-1-methyl-1H-pyrrol-3-yl)nicotinamide], the results for the MIC80 in assay [1], in assay [2] and in assay [3] were 5 to 25 µM (≈ 3.06 to 15.3 µg/mL), under 5 µM and over 100 µM, respectively.

Consider `Cn1cc(NC(=O)c2cc(NC(=O)c3ccc(/C=C/c4cnc5ccccc5c4)cc3)cn2C)cc1C(=O)NCCC(=N)NCCN1CCSCC1` [Ia47, (E)-N-(3-imino-3-((2-thiomorpholinoethyl)amino)propyl)-1-methyl-4-(1-methyl-4-(4-(2-(quinolin-3-yl)vinyl)benzamido)-1H-pyrrole-2-carboxamido)-1H-pyrrole-2-carboxamide], for which the MIC80 in assay [1] was over 100 µM; in assay [2] it was 5 to 25 µM (≈ 3.59 to 17.9 µg/mL); in assay [3], over 100 µM.

For the compound `Cn1cc(NC(=O)c2cc(NC(=O)c3ccc(/C=C/c4cnc5ccccc5c4)cc3)cn2C)cc1C(=O)NCCC(=N)NCCc1ccccc1` [Ia48, (E)-N-(3-imino-3-(phenethylamino)propyl)-1-methyl-4-(1-methyl-4-(4-(2-(quinolin-3-yl)vinyl)benzamido)-1H-pyrrole-2-carboxamido)-1H-pyrrole-2-carboxamide], the MIC80 is under 5 µM in assay [1], under 5 µM in assay [2] and over 100 µM in assay [3].

In the case of `[H]/N=C(\CCNC(=O)c1cc(NC(=O)c2cc(NC(=O)c3ccc(C=Cc4ccc(N(C)C)cc4)nc3)cn2C)cn1C)NCCc1ccccc1` [Ia49, (E)-6-(4-(dimethylamino)styryl)-N-(5-((5-((3-imino-3-(phenethylamino)propyl)carbamoyl)-1-methyl-1H-pyrrol-3-yl)carbamoyl)-1-methyl-1H-pyrrol-3-yl)nicotinamide], the MIC80 was over 100 µM in assay [1], under 5 µM in assay [2] and over 100 µM in assay [3].

As to `CC/N=C(/CCNC(=O)c1cc(NC(=O)c2cc(NC(=O)c3ccc(/C=C/c4cnc5ccccc5c4)cc3)cn2C)cn1C)NCC` [Ia50, N—((Z)-3-(ethylamino)-3-(ethylimino)propyl)-1-methyl-4-(1-methyl-4-(4-((E)-2-(quinolin-3-yl)vinyl)benzamido)-1H-pyrrole-2-carboxamido)-1H-pyrrole-2-carboxamide], the MIC80 in assay [1] is 25 to 100 µM (≈ 16.1 to 64.5 µg/mL); in assay [2] it was 25 to 100 µM (≈ 16.1 to 64.5 µg/mL); in assay [3] it was over 100 µM.

On to `C/N=C(/CCNC(=O)c1cc(NC(=O)c2cc(NC(=O)c3ccc(/C=C/c4cccc(F)c4)cc3)cn2C)cn1C)NC` [Ia64, 4-(4-((E)-3-fluorostyryl)benzamido)-1-methyl-N-(1-methyl-5-(((Z)-3-(methylamino)-3-(methylimino)propyl)carbamoyl)-1H-pyrrol-3-yl)-1H-pyrrole-2-carboxamide], for which the MIC80 in assay [2] was in the range of 5 to 25 µM (≈ 2.92 to 14.6 µg/mL).

For `C/N=C(/CCNC(=O)c1cc(NC(=O)c2cc(NC(=O)c3ccc(/C=C/c4ccc(F)cc4)nc3)cn2C)cn1C)NC` [Ia65, 6-((E)-4-fluorostyryl)-N-(1-methyl-5-((1-methyl-5-(((Z)-3-(methylamino)-3-(methylimino)propyl)carbamoyl)-1H-pyrrol-3-yl)carbamoyl)-1H-pyrrol-3-yl)nicotinamide], the MIC80 in assay [2] was under 5 µM.

For `CC[N+](C)(C)CCCNC(=O)c1cc(NC(=O)c2cc(NC(=O)c3ccc(/C=C/c4cccc(C(F)(F)F)c4)nc3)cn2C)cn1C` [Ic20, (E)-N-ethyl-N,N-dimethyl-3-(1-methyl-4-(1-methyl-4-(6-(3-(trifluoromethyl)styryl)nicotinamido)-1H-pyrrole-2-carboxamido)-1H-pyrrole-2-carboxamido)propan-1-aminium], in assay [2], the MIC80 fell in the range of 25 to 100 µM.

`CC[N+](C)(C)CCCNC(=O)c1cc(NC(=O)c2cc(NC(=O)c3ccc(/C=C/c4ccc(F)c(OC)c4)nc3)cn2C)cn1C` [Ic21, (E)-N-ethyl-3-(4-(4-(6-(4-fluoro-3-methoxystyryl)nicotinamido)-1-methyl-1H-pyrrole-2-carboxamido)-1-methyl-1H-pyrrole-2-carboxamido)-N,N-dimethylpropan-1-aminium]: the MIC80 in assay [2] was in the range of 25 to 100 µM.

With `CC[N+](C)(C)CCCNC(=O)c1cc(NC(=O)c2cc(NC(=O)c3ccc(/C=C/c4ccc5nonc5c4)cc3)cn2C)cn1C` [Ic22, (E)-3-(4-(4-(4-(2-(benzo[c][1,2,5]oxadiazol-5-yl)vinyl)benzamido)-1-methyl-1H-pyrrole-2-carboxamido)-1-methyl-1H-pyrrole-2-carboxamido)-N-ethyl-N,N-dimethylpropan-1-aminium], in assay [2], the MIC80 fell in the range of 25 to 100 µM.

As for `CC[N+](C)(C)CCCNC(=O)c1cc(NC(=O)c2cc(NC(=O)c3ccc(/C=C/c4cnc5ccccc5c4)cc3)cn2C)cn1C` [Ic23, (E)-N-ethyl-N,N-dimethyl-3-(1-methyl-4-(1-methyl-4-(4-(2-(quinolin-3-yl)vinyl)benzamido)-1H-pyrrole-2-carboxamido)-1H-pyrrole-2-carboxamido)propan-1-aminium], the MIC80 in assay [2] is 5 to 25 µM.

Usually MIC80 stands for the lowest concentration that inhibits either 80% of growth or 80% of the strains tested, depending on the study.
